Common to all, as to format: cell-based
The test system of experiment [1] is Staphylococcus aureus FDA 209P. Briefly: MIC against Staphylococcus aureus FDA 209P. The text has this: (§1) Below are described the antibacterial activities of the compounds in the compositions according to this invention.
(§2) The testing method complied with the standard method of Japan Sociaty of Chemotherapy.

A further experiment concerns Escherichia coli NIHJ. As to the kind of experiment: MIC against Escherichia coli NIHJ.
Excerpt: as §1, §2

In experiment [2] the test system is Desulfovibrio desulfuricans IFO 13699. Briefly: MIC against Desulfovibrio desulfuricans.
Excerpt: as §1, §2

The mark [3] stands for this setting: Staphylococcus aureus, FDA209P, 24 h.
Setting [4] is: Desulfovibrio desulfuricans, IFO13699, 24 h.
The mark [5] stands for this setting: Table 2, derivatives having a carboxylate radical, heart infusion agar, 37° C., 24 hours.
[6] abbreviates: Escherichia coli, Table 1, azaalkenelactams, heart infusion agar, 37° C., 24 hours, read-out: MIC.
[7] abbreviates: Table 1, azaalkenelactams, heart infusion agar, 37° C., 24 hours.
Where [8] appears, read: Escherichia coli, Table 2, derivatives having a carboxylate radical, heart infusion agar, 37° C., 24 hours, read-out: MIC.

Converted amounts (≈) assume the structure as drawn. Read-outs that look alike come from different tables or passages of the source.

With `CCCCCCCCCc1ccc(OCC(O)CNCCNCCNCCN2CCN=CCC(C)C2=O)cc1` (stereo not drawn) [Example 69, 4-nonylphenoxy(2-hydroxy)propylaminoethylaminoethylaminoethyl-6-methyl-2,3,6,7-tetrahydro-1,4-diazocin-5-one], the MIC in experiment [1] (setting [3]) was 200 µg/mL (≈ 366 µM); with Escherichia coli NIHJ (Escherichia coli, 24 h) it was 200 µg/mL (≈ 366 µM); in experiment [2] (setting [4]), 50 µg/mL (≈ 91.6 µM).

In the case of `CCCCCCCCCc1ccc(OCCOCCN2CCCN=C(C)CC2=O)cc1` [Example 7, 1-nonylphenylpoly(2 moles)oxyethyleneoxyethyl-4-methyl-3,6,7,8-tetrahydro-1,5-diazocin-2-one], the MIC in experiment [1] (setting [3]) was determined as 12.5 µg/mL (≈ 29 µM); against Escherichia coli NIHJ (Escherichia coli, 24 h), 200 µg/mL (≈ 464 µM); in experiment [2] (setting [4]), 12.5 µg/mL (≈ 29 µM).

As to “1-coconutalkyl-4-methyl-1-aza-5-azoniacyclooct-4-en-2-one-5-acetate”, the MIC in experiment [1] stood at 200 µg/mL; in the experiment on Escherichia coli NIHJ (setting [5]) it was 3200 µg/mL; in experiment [2], 12.5 µg/mL.

Regarding `CCCCCCCCCCCCN1CCCN=CC(C)C1=O` (stereo not drawn) [Example 44, 1-dodecyl-3-methyl-3,6,7,8-tetrahydro-1,5-diazocin-2-one], the MIC stood at 50 µg/mL (≈ 162 µM) in experiment [1] (setting [3]), 800 µg/mL (≈ 2590 µM) with Escherichia coli NIHJ (setting [6]) and 25 µg/mL (≈ 81 µM) in experiment [2] (setting [4]).

As to `CCCCCCCCCCC(O)CN1CCCN=CC(C)C1=O` (stereo not drawn) [Example 45, 1-(2-hydroxy)dodecyl-3-methyl-3,6,7,8-tetrahydro-1,5-diazocin-2-one], the MIC stood at 100 µg/mL (≈ 308 µM) in experiment [1] (setting [7]), 800 µg/mL (≈ 2470 µM) in the experiment with Escherichia coli NIHJ (setting [7]) and 50 µg/mL (≈ 154 µM) in experiment [2] (setting [7]).

`CCCCCCCCCCCC(=O)OCCN1CCCN=C(C)CC1=O` [Example 14, 1-lauroyloxyethyl-4-methyl-3,6,7,8-tetrahydro-1,5-diazocin-2-one]: the MIC in experiment [1] (Staphylococcus aureus, FDA209P, Table 1, azaalkenelactams, heart infusion agar, 37° C., 24 hours, read-out: MIC) stood at 100 µg/mL (≈ 273 µM); with Escherichia coli NIHJ (setting [6]), 1600 µg/mL (≈ 4370 µM); in experiment [2] (setting [4]) it was 12.5 µg/mL (≈ 34.1 µM).

Take `CCCCCCCCCCCCCCCCN1CCN=C(C)CC1=O` [Example 5, 4-hexadecyl-7-methyl-3,6-dihydro-2H-1,4-diazepin-5-one]: the MIC in experiment [1] (setting [3]) stood at 12.5 µg/mL (≈ 35.7 µM); with Escherichia coli NIHJ (setting [6]), 3200 µg/mL (≈ 9130 µM); in experiment [2] (setting [4]), 6.25 µg/mL (≈ 17.8 µM).

As for `CCCCCCCCCCCCOCCNCCN1CCN=C(C)CC1=O` [Example 6, 4-dodecoxyethylaminoethyl-7-methyl-3,6-dihydro-2H-1,4-diazepin-5-one], the MIC was 12.5 µg/mL (≈ 32.8 µM) in experiment [1] (setting [3]); 50 µg/mL (≈ 131 µM) against Escherichia coli NIHJ (Escherichia coli, 24 h); 25 µg/mL (≈ 65.5 µM) in experiment [2] (setting [4]).

As to `CCCCCCCC/C=C\CCCCCCCC(=O)OCCN1CC[N+](CC(=O)[O-])=C(C)CC1=O` [4-oleoyloxyethyl-7-methyl-1-azonia-4-azacyclohept-7-en-5-one-1-acetate], the MIC in experiment [1] (setting [3]) was determined as 200 µg/mL (≈ 406 µM); in the experiment on Escherichia coli NIHJ (setting [8]), 3200 µg/mL (≈ 6490 µM); in experiment [2] (setting [4]), 25 µg/mL (≈ 50.7 µM).

For the compound `CCCCCCCCCCCC(=O)OCCN1CCC[N+](CC(=O)[O-])=C(C)CC1=O` [1-lauroyloxyethyl-4-methyl-1-aza-5-azoniacyclooct-4-en-2-one-5-acetate], the MIC in experiment [1] (setting [3]) worked out at 400 µg/mL (≈ 942 µM); in the experiment on Escherichia coli NIHJ (setting [8]) it was 3200 µg/mL (≈ 7540 µM); in experiment [2] (setting [4]), 25 µg/mL (≈ 58.9 µM).

On to `CCCCCCCCCCCCNCCN1CC[N+](CC(=O)[O-])=C(C)CC1=O` [4-dodecylaminoethyl-7-methyl-1-azonia-4-azacyclohept-7-en-5-one-1-acetate], for which the MIC turned out to be 50 µg/mL (≈ 126 µM) in experiment [1] (setting [3]); 100 µg/mL (≈ 253 µM) against Escherichia coli NIHJ (Escherichia coli, 24 h); 12.5 µg/mL (≈ 31.6 µM) in experiment [2] (setting [4]).

In the case of `CCCCCCCCCCCCCCCCN1CC[N+](CC(=O)[O-])=C(C)CC1=O` [4-hexadecyl-7-methyl-1-azonia-4-azacyclohept-7-en-5-one-1-acetate], the MIC was 100 µg/mL (≈ 245 µM) in experiment [1] (setting [3]), 3200 µg/mL (≈ 7830 µM) with Escherichia coli NIHJ (setting [8]) and 12.5 µg/mL (≈ 30.6 µM) in experiment [2] (setting [4]).

Take “4-octoxy(2-hydroxy)propyl-7-methyl-1-azonia-4-azacyclohept-7-en-5-one-1-acetate”: the MIC in experiment [1] was 100 µg/mL; in the experiment with Escherichia coli NIHJ (setting [5]), 800 µg/mL; in experiment [2], 25 µg/mL.

As to `CCCCCCCCC=CCCCCCCCCN1CCC[N+](CC(=O)[O-])=C(C)CC1=O` [1-(9-octadecenyl)-4-methyl-1-aza-5-azoniacyclooct-4-en-2-one-5-acetate], the MIC in experiment [1] (setting [3]) was 12.5 µg/mL (≈ 27.9 µM); in the experiment on Escherichia coli NIHJ (setting [8]) it was 800 µg/mL (≈ 1780 µM); in experiment [2] (setting [4]), 12.5 µg/mL (≈ 27.9 µM).

Turning to `CCCCCCCCCCCCCCNCCN1CCC[N+](C(C)C(=O)[O-])=CC(C)C1=O` (stereo not drawn) [1-tetradecylaminoethyl-3-methyl-1-aza-5-azoniacyclooct-4-en-2-one-5-propionate], the MIC amounted to 6.25 µg/mL (≈ 13.8 µM) in experiment [1] (setting [3]); 100 µg/mL (≈ 221 µM) with Escherichia coli NIHJ (Escherichia coli, 24 h); 6.25 µg/mL (≈ 13.8 µM) in experiment [2] (setting [4]).

With “1-octadecylaminopropyl-4-methyl-1-aza-5-azoniacyclooct-4-en-2-one-5-propionate”, the MIC in experiment [1] amounted to 6.25 µg/mL; against Escherichia coli NIHJ, 100 µg/mL; in experiment [2], 6.25 µg/mL.

Turning to `CCCCCCCCCCCCCCC(O)CNCCN1CC[N+](CC(=O)[O-])=CC(C)(C)C1=O` (stereo not drawn) [4-(2-hydroxyhexadecyl)aminoethyl-6,6-dimethyl-1-azonia-4-azacyclohept-7-en-5-one-1-acetate], the minimal inhibitory concentration (MIC) was 12.5 µg/mL (≈ 25.9 µM) in experiment [1] (setting [3]); 200 µg/mL (≈ 415 µM) in the experiment with Escherichia coli NIHJ (Escherichia coli, 24 h); 6.25 µg/mL (≈ 13 µM) in experiment [2] (setting [4]).

Turning to “1-hydroxyethyl-2-undecylimidazolineumbetaine [reference compound]”, the values for the minimal inhibitory concentration (MIC) (in experiment [1] (setting [5]); with Escherichia coli NIHJ (setting [5]); in experiment [2]) were 3600 µg/mL, at least 10000 µg/mL and 400 µg/mL, respectively.

As to `CCCCCCCCCCCCCCCCCCCCCC(=O)OCCN1CC[N+](CC(=O)[O-])=CCCC1=O` [4-behenoyloxyethyl-4-aza-1-azoniacyclooct-8-en-5-one-1-acetate], the MIC came out at 100 µg/mL (≈ 182 µM) in experiment [1] (setting [3]); 200 µg/mL (≈ 363 µM) with Escherichia coli NIHJ (Escherichia coli, 24 h); 12.5 µg/mL (≈ 22.7 µM) in experiment [2] (setting [4]).

Regarding `CCCCCCCCCCCCCCC(O)CNCCN1CC[N+](CC(=O)[O-])=C(C)CC1=O` (stereo not drawn) [4-(2-hydroxyhexadecyl)aminoethyl-7-methyl-1-azonia-4-azacyclohept-7-en-5-one-1-acetate], the MIC in experiment [1] (setting [3]) is 25 µg/mL (≈ 53.5 µM); against Escherichia coli NIHJ (Escherichia coli, 24 h), 50 µg/mL (≈ 107 µM); in experiment [2] (Desulfovibrio desulfuricans, IFO13699, Table 2, derivatives having a carboxylate radical, heart infusion agar, 37° C., 24 hours, read-out: MIC) it was 3.12 µg/mL (≈ 6.67 µM).

Consider `CCCCCC[C@@H](O)C/C=C\CCCCCCCC(=O)NCCN1CC[N+](CC(=O)[O-])=CC(C)(C)C1=O` [4-ricinolamidoethyl-6,6-dimethyl-1-azonia-4-azacyclohept-7-en-5-one-1-acetate], for which the MIC in experiment [1] (setting [3]) was 400 µg/mL (≈ 767 µM); in the experiment with Escherichia coli NIHJ (setting [8]), 1600 µg/mL (≈ 3070 µM); in experiment [2] (setting [4]), 50 µg/mL (≈ 95.8 µM).

Take `CCCCCCCCCCCCCCNCCN1CC[N+](CC(=O)[O-])=CC(C)C1=O` (stereo not drawn) [4-tetradecylaminoethyl-6-methyl-1-azonia-4-azacyclohept-7-en-5-one-1-acetate]: the MIC in experiment [1] (setting [3]) amounted to 6.25 µg/mL (≈ 14.8 µM); against Escherichia coli NIHJ (Escherichia coli, 24 h), 100 µg/mL (≈ 236 µM); in experiment [2] (setting [4]), 6.25 µg/mL (≈ 14.8 µM).

As to `CCCCCCCC/C=C\CCCCCCCC(=O)NCCN1CC[N+](CC(=O)[O-])=C(C)CC1=O` [4-oleamidoethyl-7-methyl-1-azonia-4-azacyclohept-7-en-5-one-1-acetate], the MIC in experiment [1] (setting [3]) amounted to 25 µg/mL (≈ 50.8 µM); in the experiment with Escherichia coli NIHJ (setting [8]), 3200 µg/mL (≈ 6510 µM); in experiment [2] (setting [4]), 12.5 µg/mL (≈ 25.4 µM).

Consider `CC1=NCCN(CC(C)OCC(C)OCC(C)OCc2ccc(C)cc2)C(=O)C1` (stereo not drawn) [Example 39, 4-methylbenzylpoly(2moles)oxypropyleneoxypropyl-7-methyl-3,6-dihydro-2H-1,4-diazepin-5-one], for which the minimum inhibitory concentration (MIC) in experiment [1] (setting [3]) was 25 µg/mL (≈ 61.8 µM); against Escherichia coli NIHJ (Escherichia coli, 24 h) it was 200 µg/mL (≈ 494 µM); in experiment [2] (setting [4]), 50 µg/mL (≈ 124 µM).

As to `CCCCCCCCCCCC(=O)OCCN1CC[N+](CC(=O)[O-])=CC(C)C1=O` (stereo not drawn) [4-lauroyloxyethyl-6-methyl-1-azonia-4-azacyclohept-7-en-5-one-1-acetate], the MIC in experiment [1] (setting [3]) was 50 µg/mL (≈ 122 µM); against Escherichia coli NIHJ (Escherichia coli, 24 h), 200 µg/mL (≈ 487 µM); in experiment [2] (setting [4]), 50 µg/mL (≈ 122 µM).

The values are drawn from US4346087A, “Antibacterial surface active agent containing azaalkenelactam” (priority 1979, dated 1982).
